{
  "source": "patent US9242937B2",
  "about": "“Pharmaceutically active disubstituted pyridine derivatives” (Bayer Intellectual Property GmbH, priority 2011, dated 2016)",
  "test_system": "cellular CDK9 activity (RNA Polymerase II Ser2 phosphorylation) in HCT-116 cells",
  "assay": "RNA-Polymerase II Ser2 cellular phosphorylation assay",
  "format": "cell-based",
  "conditions": "Homo sapiens, 72 h, normalized with tubulin, read-out: RNA Polymerase II Ser2 Phosphorylation (activity range), IC50",
  "procedure": "HCT-116 cells (DSMZ, Braunschweig, Germany) were maintained in Mc Coy's cell culture medium+glutamine (PAN Biotech GmbH, Aidenbach, Germany) supplemented with 10% fetal calf serum (PAA Laboratories GmbH, Pasching, Austria) and grown at 37° C., 5% CO2. For the cellular phosphorylation assay, cells were seeded with 2×10^5 cells/well/1 ml in 24-well plates (Greiner Bio One, Frickenhausen, Germany; catalog #662160). The compounds of general formula (I) summarized in Table 6 were diluted from a 10 mM DMSO stock solution 1:10 in a total volume of 15 μL DMSO. After overnight incubation at 37° C./5% CO2, 1.5 μL of a compound diluted in DMSO was added to each sample well. Wells with cells and 0.15% DMSO in culture medium were used as positive controls, wells without cells and 0.15% DMSO in culture medium were used as negative controls. The cells were incubated with the compounds for 72 h at 37° C./5% CO2. […] Phosphorylation of RNA Polymerase II Ser2 and tubulin levels for normalization were analyzed afterwards with the Multi-Array technology (Meso Scale Discovery, Gaithersburg, Md., USA), a combination of antibody coupled electrochemiluminescence detection and patterned arrays. […] Finally, plates were washed three times with Tris Wash Buffer, 150 μl 2× Read Buffer (Meso Scale Discovery) were added per well and plates were analyzed immediately in a Sector Imager from Meso Scale Discovery. […]",
  "data": [
    {"smiles": "COc1ccccc1-c1ccnc(Nc2cccc(S(N)(=O)=O)c2)c1", "note": "[Compound D1, 3-[(4-(2-Methoxyphenyl)pyridin-2-yl)amino]benzenesulfonamide]", "values": [
      {"measurement": "IC50", "result": "1 to 10", "unit": "µM"}
    ]}
  ]
}
